# Data reported in US8846951B2 (AbbVie Inc., priority 2009, dated 2014).
# pEC50, pKi: −log10 of the molar value.
# Columns and labels:
# [1] = target: T1, human serotonin 5-HT2c receptor (Homo sapiens, UniProt P28335); assay: Human 5-HT2C receptor radioligand binding assay (agonist site, [125I]DOI); conditions: 5-HT2c agonist site; transfected CHO cell membranes; 0.2 nM [125I](±)DOI
# T1 construct: expressed in transfected cells; host or cells: CHO cells (membrane homogenates)
# T1 sequence (P28335 33-458): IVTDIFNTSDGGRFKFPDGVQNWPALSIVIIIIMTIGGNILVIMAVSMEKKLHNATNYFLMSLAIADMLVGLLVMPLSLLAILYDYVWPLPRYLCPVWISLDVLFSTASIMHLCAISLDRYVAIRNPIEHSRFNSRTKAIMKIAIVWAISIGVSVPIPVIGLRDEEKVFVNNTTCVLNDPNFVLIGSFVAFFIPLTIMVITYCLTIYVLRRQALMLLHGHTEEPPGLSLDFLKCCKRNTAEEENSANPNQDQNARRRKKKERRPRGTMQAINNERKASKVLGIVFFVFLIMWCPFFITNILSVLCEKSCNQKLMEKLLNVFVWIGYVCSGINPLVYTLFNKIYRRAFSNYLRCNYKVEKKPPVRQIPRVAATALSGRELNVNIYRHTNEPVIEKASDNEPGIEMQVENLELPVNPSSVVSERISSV
# Method: (i) Human 5-HT2C Receptor Radioligand Binding Assay
# Affinity of compounds for the agonist site of the […], receptor in transfected CHO cells was determined in a radioligand binding assay essentially as described by Bryant, H. U., et al., Life Sciences (1996) 59(15), 1259-1268.
# 5HT2C receptors = target: T2, 5HT2C receptors (Homo sapiens, UniProt P28335); assay: Human 5-HT2C functional assay in 1321N1 cells (intracellular calcium, FLIPR); assay type: cell-based; set-up: expressed in transfected cells; host or cells: 1321N1 cells; conditions: 5-HT2c agonist activity, maximum calcium response
# T2 sequence (P28335 33-458): T1 sequence (P28335 33-458)
# Summary of the method: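 1321N1 cells stably expressing human 5-HT2C were serum-starved overnight and loaded with Fluo-4 AM and 1% probenecid. Compounds (10^−10 to 10^−5 M) were tested alone or with 10^−9 M serotonin, and peak calcium was read by FLIPR. EC50 from four-parameter logistic fit.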
# 5-HT6 receptor = target: T3, 5-HT6 receptor (Homo sapiens, UniProt P50406); assay: Human 5-HT6 receptor radioligand binding assay (transfected CHO cells, [3H]LSD); conditions: transfected CHO cell membranes, 2 nM [3H]LSD
# T3 construct: expressed in transfected cells; host or cells: CHO cells (membrane homogenates)
# Method: (vi) Human 5-HT6 Receptor Radioligand Binding Assay
# Affinity of compounds for the agonist site of the 5-HT6 receptor in transfected CHO cells was determined in a radioligand binding assay essentially as described by Monsma, F. J., et al., Mol. Pharmacol. (1993) 43, 320-327. […] Nonspecific binding was determined in the presence of 100 μM serotonin. The amount of binding was determined by radioactivity quantitation with scintillation counter. IC50s were determined from a standard curve of the reference compound serotonin. Ki's as shown in Table 7 were derived from the IC50s in the standard method.
# T3 sequence (P50406 whole entry): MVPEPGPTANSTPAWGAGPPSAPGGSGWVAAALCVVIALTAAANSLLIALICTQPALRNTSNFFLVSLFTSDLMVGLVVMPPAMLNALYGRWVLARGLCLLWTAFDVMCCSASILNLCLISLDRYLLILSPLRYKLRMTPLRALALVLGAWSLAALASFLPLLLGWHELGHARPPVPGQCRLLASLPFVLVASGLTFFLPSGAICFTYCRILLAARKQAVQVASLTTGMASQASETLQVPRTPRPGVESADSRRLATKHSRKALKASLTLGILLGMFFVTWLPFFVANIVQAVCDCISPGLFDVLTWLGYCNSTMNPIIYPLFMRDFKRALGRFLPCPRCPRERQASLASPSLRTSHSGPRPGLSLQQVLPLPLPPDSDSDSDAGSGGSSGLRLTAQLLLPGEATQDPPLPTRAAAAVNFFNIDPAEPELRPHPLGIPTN
pKi [1],pEC50 (5HT2C receptors),pKi (5-HT6 receptor),Structure (SMILES)
6.49,< 5.00,7.24,"O=S(=O)(c1cccc(Br)c1)N1Cc2ccccc2[C@@H]2CN(Cc3ccccc3)C[C@H]2C1 (relative stereo) [Example 12, Trans-2-benzyl-5-(3-bromophenylsulfonyl)-1,2,3,3a,4,5,6,10b-octahydrobenzo[c]pyrrolo[3,4-e]azepine]"
6.23,< 5.00,6.60,"O=S(=O)(c1ccc(F)c(Cl)c1)N1Cc2ccccc2[C@@H]2CN(Cc3ccccc3)C[C@H]2C1 (relative stereo) [Example 14, Trans-2-benzyl-5-(3-chloro-4-fluorophenylsulfonyl)-1,2,3,3a,4,5,6,10b-octahydrobenzo[c]pyrrolo[3,4-e]azepine]"
6.25,< 5.00,6.85,"O=S(=O)(c1cccc(C(F)(F)F)c1)N1Cc2ccccc2[C@@H]2CN(Cc3ccccc3)C[C@H]2C1 (relative stereo) [Example 16, Trans-2-benzyl-5-(3-(trifluoromethyl)phenylsulfonyl)-1,2,3,3a,4,5,6,10b-octahydrobenzo[c]pyrrolo[3,4-e]azepine]"
6.59,< 5.00,7.37,"O=S(=O)(c1cccc(Cl)c1)N1Cc2ccccc2[C@@H]2CN(Cc3ccccc3)C[C@H]2C1 (relative stereo) [Example 20, Trans-2-benzyl-5-(3-chlorophenylsulfonyl)-1,2,3,3a,4,5,6,10b-octahydrobenzo[c]pyrrolo[3,4-e]azepine]"
